The values below are quoted from earlier work in patent US20240139316A1, “USE OF OREGOVOMAB AND BEVACIZUMAB, PACLITAXEL, CARBOPLATIN FOR TREATMENT OF BRCA-WILD TYPE PLATINUM SENSITIVE RECURRENT” (CANARIABIO INC., priority 2021, published 2024).

For data set [1] the following is noted: four infusions of Oregovomab with standard six cycle carboplatin and paclitaxel, relative to carboplatin-paclitaxel alone.
For data set [2] the following is noted: oregovomab alone after the initial chemotherapy treatment, advanced ovarian cancer.
For data set [3] the following is noted: stage III or IV ovarian cancer after initial surgical operation; bevacizumab added to carboplatin and paclitaxel, followed by single-agent bevacizumab.

As to Oregovomab, in data set [1], the “overall survival (OS)” value is recorded as “significant improvement” and the “progression free survival (PFS)” value is “significant improvement”. Besides, the clinical outcome in data set [2] is listed as “no improvements”.

“bevacizumab: recombinant humanized IgG1 monoclonal antibody that selectively binds human VEGF-A”: the Progression-free survival in data set [3] was 18 months.

For the substance carboplatin and paclitaxel, the Progression-free survival in data set [3] is recorded as 13 months.
